Reference: PubChem BioAssay (NCI)
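Protocol summary: plate cells (96-well), add compound at 5 concentrations, incubate 48 h, interpolate endpoints linearly. GI50 is the concentration that inhibits growth by half. TGI is the concentration that stops growth completely.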

How the values were obtained:
Assay in all cases: NCI tumour cell line growth inhibition, 48 h
[1] = system: A549 NSCLC
[2] = system: SF-268 CNS
[3] = system: UO-31 renal
[4] = system: OVCAR-5 ovarian
[5] = system: SF-539 CNS
[6] = system: HT29 colon
[7] = system: KM12 colon
[8] = system: NCI-H522 lung
[9] = system: SF-295 CNS
[10] = system: HOP-92 NSCLC

Compound | TGI [1] [µM] | TGI [2] [µM] | TGI [3] [µM] | TGI [4] [µM] | TGI [5] [µM] | TGI [6] [µM] | TGI [7] [µM] | TGI [8] [µM] | TGI [9] [µM] | GI50 [10] [µM] | TGI [10] [µM] | GI50 [1] [µM] | GI50 [2] [µM] | GI50 [3] [µM] | GI50 [4] [µM] | GI50 [5] [µM] | GI50 [6] [µM] | GI50 [7] [µM] | GI50 [8] [µM] | GI50 [9] [µM]
Cc1cc(NS(=O)(=O)c2ccc(Nc3c4ccccc4nc4c(C(=O)NCCN(C)C)ccc(Cl)c34)cc2)no1 | 17.3 | 15.3 | 7.84 | 28.5 | 14.6 | 14.4 | 19.3 | 3.86 | 16.2 |  |  |  |  |  |  |  |  |  |  | 
COC(=O)C(C)N1C(=O)c2ccccc2I1OC(C)=O (stereo not given) | > 100 | > 100 | > 100 | > 100 | > 100 | 97.5 | > 100 | > 100 | > 100 | > 100 | > 100 | > 100 | 69 | 54.2 | > 100 | 31.7 | 26.3 | > 100 | 39.8 | > 100
COc1cc(N=Nc2cccc(S(=O)(=O)O)c2)c(C)cc1N=Nc1ccc(/C=C/c2ccc(N=[N+]([O-])c3ccc(/C=C/c4ccc(N=Nc5cc(C)c(N=Nc6cccc(S(=O)(=O)O)c6)cc5OC)cc4)c(S(=O)(=O)O)c3)cc2S(=O)(=O)O)cc1 | > 100 | > 100 | > 100 | > 100 | > 100 | > 100 | > 100 | > 100 | > 100 |  | > 100 |  |  |  |  |  |  |  |  | 
O=CNc1cccc2c3c([nH]c12)CCCCCC3 | > 100 | > 100 | > 100 | > 100 | > 100 | > 100 | > 100 | > 100 | > 100 |  | > 100 |  |  |  |  |  |  |  |  | 
CCOC(=O)C1C(c2cc(OC)c(O)c(OC)c2)c2cc3c(cc2OC1(C)O)OCO3 (stereo not given) | > 100 |  | > 100 |  | > 100 | > 100 |  |  | > 100 |  | 57 |  |  |  |  |  |  |  |  | 
CC(C)(C)OC(=O)NC(Cc1ccccc1)C(=O)N[C@H]1c2ccsc2/C(=N/O)[C@H]1O (stereo not given in full) | > 100 |  | > 100 | > 100 | > 100 | > 100 |  |  | > 100 |  | > 100 |  |  |  |  |  |  |  |  | 
C=C1C(=O)O[C@H]2C1[C@H](OC(=O)/C(C)=C\COC(C)=O)C[C@]1(CO1)[C@@H]1[C@H](O)[C@H]3O[C@@]3(C)[C@@H]12 (stereo not given in full) | > 100 | 49.7 | > 100 | > 100 | > 65.4 | 40.8 | 29.5 | 22.8 | > 100 |  | 30.8 |  |  |  |  |  |  |  |  | 
COc1ccc(C(=O)Cc2cc(OC)ccc2OC)cc1 | > 100 | > 100 | > 100 | > 100 | > 100 | > 100 |  | > 100 | > 100 |  |  |  |  |  |  |  |  |  |  | 
CC(C)=CCN(N=O)c1ncnc2nc[nH]c12 | > 100 | > 100 | > 100 | > 100 | > 100 | > 100 | > 100 | > 100 | > 100 |  | > 100 |  |  |  |  |  |  |  |  | 
